Measurements taken from patent US11447445B2, “Diabetes and metabolic syndrome treatment with a novel dual modulator of soluble epoxide hydrolase and peroxisome proliferator-activated receptors” (priority 2015, dated 2022).
≈ marks a conversion by molar mass, not a printed value. Like-named read-outs stand apart in the source and are kept apart here.

How the values were obtained:
PPARδ = molecular target: T1, PPARδ (Homo sapiens, UniProt Q03181); assay: PPAR transactivation assay in COS-7 cells (Gal4-hPPAR-LBD, luciferase); assay type: cell-based
T1 construct: expressed in transfected cells; host or cells: COS-7
Experimental: (§1) COS-7 cells (PPAR) were grown in DMEM high glucose, supplemented with 10% fetal calf serum (FCS), 1% sodium pyruvate (SP) and 1% penicillin/streptomycin (PS) at 37° C. and 5% CO2. Used plasmids for PPAR transactivation assay are shown under supporting informations.
(§2) The day before transfection, COS-7 cells were seeded in 96-well plates with a density of 30,000 cells per well. Transient transfection was carried out using Lipofectamine LTX reagent (Invitrogen, Carlsbad, Calif., USA) according to the manufacturer's protocol with pFR-Luc (Stratagene), pRL-SV40 (Promega) and the Ga14-fusion receptor plasmids (pFA-CMV-hPPAR-LBD) of the respective PPAR subtype. 5 h after transfection, medium was changed to DMEM without phenol red and 10% FCS, supplemented with 1% SP, 1% PS and 1% L-glutamine, now additionally containing 0.1% DMSO and the respective test compound or 0.1% DMSO alone as untreated control. Each concentration was tested in triplicate wells and each experiment was repeated independently at least three times. Following overnight incubation with the test compounds, cells were assayed for luciferase activity using Dual-Glo™ Luciferase Assay System (Promega) according to the manufacturer's protocol. Luminescence was measured with an Infinite m200 luminometer (Tecan Deutschland GmbH). Each concentration of the compounds was tested in triplicate wells. Normalization for transfection efficacy and cell growth was done by division of the firefly luciferase data by renilla luciferase data resulting in relative light units. Activation factors were obtained by dividing by DMSO control. […] All compounds were evaluated by comparison of the achieved maximum effect to that of the reference compound (pioglitazone for PPARγ, GW7647 for PPARa, and L165041 for PPARS each with 1 μM). Data are expressed as mean±SE; n≥3.
(§3) The Gal4-fusion receptor plasmids pFA-CMV-PPARa-LBD, pFA-CMV-PPARS-LBD and pFA-CMV-PPARγ-LBD containing the hinge region and ligand binding domain (LBD) for each of the PPAR subtypes, respectively, were constructed by integrating cDNA fragments obtained from PCR amplification of human monocytes into the SmaI/XbaI cleavage site of the pFA-CMV vector (Stratagene, La Jolla, Calif., USA) and have already been published. […] Frame and sequence of the fusion receptors were verified by sequencing. pFR-Luc (Stratagene) was used as reporter plasmid and pRL-SV40 (Promega) for normalization of transfection efficacy and cell growth.

recombinant human sEH = molecular target: T2, recombinant human sEH (Homo sapiens, UniProt P34913); assay: biochemical
T2 sequence (P34913 1-555): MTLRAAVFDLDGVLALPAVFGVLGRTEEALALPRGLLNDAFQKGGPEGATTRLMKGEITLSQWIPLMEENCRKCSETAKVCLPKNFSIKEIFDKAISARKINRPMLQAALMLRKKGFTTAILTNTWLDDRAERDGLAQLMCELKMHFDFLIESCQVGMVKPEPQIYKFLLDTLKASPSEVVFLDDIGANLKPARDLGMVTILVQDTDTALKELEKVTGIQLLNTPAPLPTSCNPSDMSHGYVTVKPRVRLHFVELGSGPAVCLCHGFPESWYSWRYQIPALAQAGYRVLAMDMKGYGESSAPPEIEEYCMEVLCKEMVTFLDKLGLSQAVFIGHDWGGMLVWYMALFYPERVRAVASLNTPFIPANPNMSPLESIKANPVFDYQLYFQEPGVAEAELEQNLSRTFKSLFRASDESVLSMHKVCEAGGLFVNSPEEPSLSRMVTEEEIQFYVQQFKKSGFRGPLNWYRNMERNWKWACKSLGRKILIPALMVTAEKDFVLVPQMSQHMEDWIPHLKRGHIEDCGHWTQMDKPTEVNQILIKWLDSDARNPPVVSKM

PPARα = molecular target: T3, PPARα (Homo sapiens, UniProt Q07869); assay type: cell-based; settings: for PPARα activation @10 μM: at 10 μM, compared to GW7647 1 μM
T3 construct: expressed in transfected cells; host or cells: COS-7
Experimental: as §1, §2, §3

[1] = Water solubility approximation; assay type: physicochemical; settings: PBS with 0.01% Polysorbate 20, aqueous with cosolvent or surfactant or cyclodextrin, kinetic from dmso stock; PBS pH 7.4, 0.01% Polysorbate 20, 1% DMSO; precipitation at 650 nm; read-out: w.s. (water solubility)
Experimental: PBS at pH 7.4 with 0.01% Polysorbate 20 (Tween) was combined with 1% of a DMSO solution of the inquired compound in a 96-well transparent flat bottom microtiter plate. Precipitation of the compound was measured at 650 nm with a Tecan Infinite 200 (Tecan Group Ltd, Mannedorf, Switzerland).

[2] = at 10 μM, read-out: sEH inhibition @10 μM (converted)

T1 sequence (Q03181 211-439): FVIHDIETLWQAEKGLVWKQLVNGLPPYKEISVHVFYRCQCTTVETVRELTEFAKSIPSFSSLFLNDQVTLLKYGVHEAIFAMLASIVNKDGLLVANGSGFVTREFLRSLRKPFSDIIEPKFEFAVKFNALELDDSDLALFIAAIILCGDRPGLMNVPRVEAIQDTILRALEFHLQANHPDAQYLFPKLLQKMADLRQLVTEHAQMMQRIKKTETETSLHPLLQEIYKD
T3 sequence (Q07869 239-466): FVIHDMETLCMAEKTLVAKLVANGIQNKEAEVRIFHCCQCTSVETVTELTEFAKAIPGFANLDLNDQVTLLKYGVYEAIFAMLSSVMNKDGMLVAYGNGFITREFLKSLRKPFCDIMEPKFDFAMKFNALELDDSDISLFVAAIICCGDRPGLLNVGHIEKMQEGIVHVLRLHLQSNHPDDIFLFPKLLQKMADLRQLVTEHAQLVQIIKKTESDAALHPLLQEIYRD

Row | Structure (SMILES) | EC50 PPARδ (PPARδ; i.a. = inactive) | IC50 (recombinant human sEH; read-out: IC50 sEH (converted)) [nM] | EC50 PPARα (PPARα; i.a. = inactive) | also measured
1 | CCOC(=O)/C(=C/c1ccc(C(=O)NCc2ccccc2C(F)(F)F)cc1)CC [Compound 1a] | i.a. | 63 ± 3 | i.a. | 
2 | CC/C(=C\c1ccc(C(=O)NCc2ccccc2C(F)(F)F)cc1)C(=O)O [Compound 1d, (E)-4-[N-((2-Trifluoromethyl)benzyl)benzamide]-alpha-ethylcinnamic acid] | i.a. | 120 ± 10 | i.a. | 
3 | CCC(Cc1ccc(C(=O)NCc2ccccc2)cc1)C(=O)O (stereo not drawn) [Compound 2c, 2-Ethyl 3-[4-(N-benzylbenzamide)]propionic acid] |  |  |  | EC50 PPARδ (PPARδ): n.t. i.a. i.a. n.t.; inhibition at 10 µM (recombinant human sEH; read-out: sEH inhibition @10 μM): 4%; EC50 PPARα (PPARα): n.t. i.a. i.a. n.t.
4 | CCC(Cc1ccc(C(=O)NCc2ccccc2C)cc1)C(=O)O (stereo not drawn) [Compound 3c, 2-Ethyl 3-[4-(N-((2-methyl)benzyl)benzamide)]propionic acid] | n.t. i.a. i.a. n.t. |  | i.a. | inhibition at 10 µM (recombinant human sEH; [2]): 25%
5 | CCC(Cc1ccc(C(=O)NCc2ccccc2Cl)cc1)C(=O)O (stereo not drawn) [Compound 4c, 2-Ethyl 3-[4-(N-((2-chloro)benzyl)benzamide)]propionic acid] | n.t. i.a. i.a. n.t. |  | n.t. i.a. i.a. n.t. | inhibition at 10 µM (recombinant human sEH; [2]): 20%
6 | CCOC(=O)/C(=C/c1ccc(C(=O)NCc2ccccc2OC(F)(F)F)cc1)CC [Compound 6a, Ethyl (E)-4-[N-((2-trifluoromethoxy)benzyl)benzamide]-alpha-ethylcinnamate] |  | 60 ± 13 |  | solubility [1]: 10 µM (≈ 4.21 µg/mL)
7 | CCC(Cc1ccc(C(=O)NCc2ccc(F)cc2)cc1)C(=O)O (stereo not drawn) [Compound 7c, 2-Ethyl 3-[4-(N-((4-fluoro)benzyl)benzamide)]propionic acid] | n.t. i.a. i.a. n.t. |  | n.t. i.a. i.a. n.t. | inhibition at 10 µM (recombinant human sEH; [2]): 28%
8 | CC/C(=C\c1ccc(C(=O)NCc2ccc(C(F)(F)F)cc2)cc1)C(=O)O [Compound 8d, (E)-4-[N-((4-Trifluoromethyl)benzyl)benzamide]-alpha-ethylcinnamic acid] |  | 2800 |  | solubility [1]: 500 µM (≈ 189 µg/mL)
9 | CCOC(=O)/C(=C/c1ccc(C(=O)NCc2ccc(OC)cc2)cc1)CC [Compound 10a, Ethyl (E)-4-[N-((4-methoxy)benzyl)benzamide]-alpha-ethylcinnamate] |  |  |  | solubility [1]: 10 µM (≈ 3.67 µg/mL); IC50 (recombinant human sEH): 550 nM
10 | CCOC(=O)/C(=C/c1ccc(C(=O)NCc2ccc(Cl)cc2)cc1)CC [Compound 11a, Ethyl (E)-4-[N-((4-chloro)benzyl)benzamide]-alpha-ethylcinnamate] |  | 3000 ± 1400 |  | solubility [1]: 10 µM (≈ 3.72 µg/mL)
11 | CCC(Cc1ccc(C(=O)NCc2ccc(F)cc2C(F)(F)F)cc1)C(=O)O (stereo not drawn) [Compound 13c, 2-Ethyl 3-[4-(N-(4-fluoro(2-trifluoromethyl)benzyl)benzamide)]propionic acid] | n.t. i.a. i.a. n.t. |  | n.t. i.a. i.a. n.t. | 
12 | CCOC(=O)C(CC)Cc1ccc(C(=O)NCc2ccc(OC)cc2C(F)(F)F)cc1 (stereo not drawn) [Compound 14b, Ethyl 2-ethyl 3-[4-(N-(4-methoxy(2-trifluoromethyl)benzyl)benzamide)]propanoate] | n.t. i.a. i.a. n.t. |  |  | PPARα activation @10 μM (PPARα): 22%
13 | CCOC(=O)C(CC)Cc1cccc(C(=O)NCc2ccccc2C(F)(F)F)c1 (stereo not drawn) [Compound 15b, Ethyl 2-ethyl 3-[3-(N-((2-trifluoromethyl)benzyl)benzamide)]propanoate] | i.a. | 27 ± 2 | i.a. | 
14 | CCC(Cc1cccc(C(=O)NCc2ccccc2C(F)(F)F)c1)C(=O)O (stereo not drawn) [Compound 15c, 2-Ethyl 3-[3-(N-((2-trifluoromethyl)benzyl)benzamide)]propionic acid] | i.a. | 900 ± 80 |  | PPARα activation @10 μM (PPARα): @10 μM (34%)
15 | O=C(NCc1ccccc1C(F)(F)F)c1ccc(C2CC2C(=O)O)cc1 (stereo not drawn) [Compound 22, 2-[4-(N-((2-trifluoromethyl)benzyl)benzamide)]cyclopropan carboxylic acid] | i.a. | 5500 ± 200 | i.a. | 
